Measured values reported in US12077503B2, “Substituted cyclic amides and their use as herbicides” (FMC CORPORATION, priority 2015, dated 2024).

Tests used:
Type in all cases: in vivo
[1] = test system: barnyardgrass (Echinochloa crus-galli); test: Test G Pre-Emergence Protocol; settings: Echinochloa crus-galli, pre-emergence, 312 h, evaluated after 13 days; for pest or weed control at 15.625 g/ha: 15.625 g ai/ha, read-out: Barnyard grass damage rating (100=total damage to plant; 0=no damage to plant); for pest or weed control at 62.5 g/ha: 62.5 g ai/ha, 100=total damage to plant, 0=no damage to plant, read-out: plant damage rating, Barnyardgrass; for pest or weed control at 250 g/ha: 250 g ai/ha, read-out: Barnyardgrass damage rating (100=total damage to plant; 0=no damage to plant)
Method in brief: (§1)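 One day after sowing, pots are treated with a spray of test compound formulated in acetone/water 50:50 plus 0.5% Tween 20, giving 15.625, 62.5 or 250 g/ha. Evaluation on a 0–100 damage scale follows 13 days of glasshouse growth.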

[2] = test system: corn (Zea mays); test: Test G Pre-Emergence Protocol; settings: Zea mays, pre-emergence, 312 h, evaluated after 13 days; for plant injury at 15.625 g/ha: 15.625 g ai/ha; for plant injury at 15.625 g/ha / plant injury at 250 g/ha: read-out: Corn damage rating (100=total damage to plant; 0=no damage to plant); for plant injury at 62.5 g/ha: 62.5 g ai/ha, 100=total damage to plant, 0=no damage to plant, read-out: plant damage rating, Corn; for plant injury at 250 g/ha: 250 g ai/ha
Method in brief: as §1

[3] = test system: giant foxtail (Setaria faberi); test: Test G Pre-Emergence Protocol; settings: Setaria faberi, pre-emergence, 312 h, evaluated after 13 days; for pest or weed control at 15.625 g/ha: 15.625 g ai/ha; for pest or weed control at 15.625 g/ha / pest or weed control at 250 g/ha: read-out: Foxtail, Giant damage rating (100=total damage to plant; 0=no damage to plant); for pest or weed control at 62.5 g/ha: 62.5 g ai/ha, 100=total damage to plant, 0=no damage to plant, read-out: plant damage rating, Foxtail, Giant; for pest or weed control at 250 g/ha: 250 g ai/ha
Method in brief: as §1

[4] = test system: ivy-leaved morning glory (Ipomoea hederacea); test: Test G Pre-Emergence Protocol; settings: Ipomoea, pre-emergence, 312 h, evaluated after 13 days; for pest or weed control at 15.625 g/ha: 15.625 g ai/ha, read-out: Morning-glory, Ivy-leaved damage rating (100=total damage to plant; 0=no damage to plant); for pest or weed control at 62.5 g/ha: 62.5 g ai/ha, 100=total damage to plant, 0=no damage to plant, read-out: plant damage rating, Morningglory, Ivy-leaved; for pest or weed control at 250 g/ha: 250 g ai/ha, read-out: Morningglory, Ivy-leaved damage rating (100=total damage to plant; 0=no damage to plant)
Method in brief: as §1

[5] = test system: redroot pigweed (Amaranthus retroflexus); test: Test G Pre-Emergence Protocol; settings: Amaranthus retroflexus, pre-emergence, 312 h, evaluated after 13 days; for pest or weed control at 15.625 g/ha: 15.625 g ai/ha; for pest or weed control at 15.625 g/ha / pest or weed control at 250 g/ha: read-out: Pigweed, Redroot damage rating (100=total damage to plant; 0=no damage to plant); for pest or weed control at 62.5 g/ha: 62.5 g ai/ha, 100=total damage to plant, 0=no damage to plant, read-out: plant damage rating, Pigweed, Redroot; for pest or weed control at 250 g/ha: 250 g ai/ha
Method in brief: as §1

[6] = test system: velvetleaf (Abutilon theophrasti); test: Test G Pre-Emergence Protocol; settings: Abutilon theophrasti, pre-emergence, 312 h, evaluated after 13 days; for pest or weed control at 15.625 g/ha: 15.625 g ai/ha; for pest or weed control at 15.625 g/ha / pest or weed control at 250 g/ha: read-out: Velvetleaf damage rating (100=total damage to plant; 0=no damage to plant); for pest or weed control at 62.5 g/ha: 62.5 g ai/ha, 100=total damage to plant, 0=no damage to plant, read-out: plant damage rating, Velvetleaf; for pest or weed control at 250 g/ha: 250 g ai/ha
Method in brief: as §1

[7] = test system: barnyardgrass (Echinochloa crus-galli); test: Test G Post-Emergence Protocol; settings: Echinochloa crus-galli, post-emergence, 312 h; for pest or weed control at 15.625 g/ha: 15.625 g ai/ha, evaluated after 13 days (100=total damage to plant; 0=no damage to plant), read-out: Barnyardgrass damage rating; for pest or weed control at 62.5 g/ha: 62.5 g ai/ha, read-out: Barnyardgrass damage rating (100=total damage to plant; 0=no damage to plant); for pest or weed control at 62.5 g/ha / pest or weed control at 250 g/ha: evaluated after 13 days; for pest or weed control at 250 g/ha: 250 g ai/ha, read-out: damage to plant, Barnyardgrass (100=total damage to plant; 0=no damage to plant)
Method in brief: (§2)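 Damage was rated 13 days after treatment from 0 (none) to 100 (plant killed). Compound was applied as a spray at 15.625, 62.5 or 250 g/ha in 50:50 acetone/water containing 0.5% Tween 20, onto 8-day-old potted plants kept in a glasshouse (24/16 °C, 14 h light, 65% humidity).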

[8] = test system: corn (Zea mays); test: Test G Post-Emergence Protocol; settings: Zea mays, post-emergence, 312 h; for plant injury at 15.625 g/ha: 15.625 g ai/ha, evaluated after 13 days (100=total damage to plant; 0=no damage to plant), read-out: Corn damage rating; for plant injury at 62.5 g/ha: 62.5 g ai/ha, read-out: Corn damage rating (100=total damage to plant; 0=no damage to plant); for plant injury at 62.5 g/ha / plant injury at 250 g/ha: evaluated after 13 days; for plant injury at 250 g/ha: 250 g ai/ha, read-out: damage to plant, Corn (100=total damage to plant; 0=no damage to plant)
Method in brief: as §2

[9] = test system: giant foxtail (Setaria faberi); test: Test G Post-Emergence Protocol; settings: Setaria faberi, post-emergence, 312 h; for pest or weed control at 15.625 g/ha: 15.625 g ai/ha, evaluated after 13 days (100=total damage to plant; 0=no damage to plant), read-out: Foxtail, Giant damage rating; for pest or weed control at 62.5 g/ha: 62.5 g ai/ha, read-out: Foxtail, Giant damage rating (100=total damage to plant; 0=no damage to plant); for pest or weed control at 62.5 g/ha / pest or weed control at 250 g/ha: evaluated after 13 days; for pest or weed control at 250 g/ha: 250 g ai/ha, read-out: damage to plant, Foxtail, Giant (100=total damage to plant; 0=no damage to plant)
Method in brief: as §2

[10] = test system: ivy-leaved morning glory (Ipomoea hederacea); test: Test G Post-Emergence Protocol; settings: Ipomoea, post-emergence, 312 h; for pest or weed control at 15.625 g/ha: 15.625 g ai/ha, evaluated after 13 days (100=total damage to plant; 0=no damage to plant), read-out: Morningglory, Ivy-leaved damage rating; for pest or weed control at 62.5 g/ha: 62.5 g ai/ha, read-out: Morningglory, Ivy-leaved damage rating (100=total damage to plant; 0=no damage to plant); for pest or weed control at 62.5 g/ha / pest or weed control at 250 g/ha: evaluated after 13 days; for pest or weed control at 250 g/ha: 250 g ai/ha, read-out: damage to plant, Morningglory, Ivy-leaved (100=total damage to plant; 0=no damage to plant)
Method in brief: as §2

[11] = test system: redroot pigweed (Amaranthus retroflexus); test: Test G Post-Emergence Protocol; settings: Amaranthus retroflexus, post-emergence, 312 h; for pest or weed control at 15.625 g/ha: 15.625 g ai/ha, evaluated after 13 days (100=total damage to plant; 0=no damage to plant), read-out: Pigweed, Redroot damage rating; for pest or weed control at 62.5 g/ha: 62.5 g ai/ha, read-out: Pigweed, Redroot damage rating (100=total damage to plant; 0=no damage to plant); for pest or weed control at 62.5 g/ha / pest or weed control at 250 g/ha: evaluated after 13 days; for pest or weed control at 250 g/ha: 250 g ai/ha, read-out: damage to plant, Pigweed, Redroot (100=total damage to plant; 0=no damage to plant)
Method in brief: as §2

[12] = test system: velvetleaf (Abutilon theophrasti); test: Test G Post-Emergence Protocol; settings: Abutilon theophrasti, post-emergence, 312 h; for pest or weed control at 15.625 g/ha: 15.625 g ai/ha, evaluated after 13 days (100=total damage to plant; 0=no damage to plant), read-out: Velvetleaf damage rating; for pest or weed control at 62.5 g/ha: 62.5 g ai/ha, read-out: Velvetleaf damage rating (100=total damage to plant; 0=no damage to plant); for pest or weed control at 62.5 g/ha / pest or weed control at 250 g/ha: evaluated after 13 days; for pest or weed control at 250 g/ha: 250 g ai/ha, read-out: damage to plant, Velvetleaf (100=total damage to plant; 0=no damage to plant)
Method in brief: as §2

Structure (SMILES) | pest or weed control at 15.625 g/ha [1] [%] | pest or weed control at 62.5 g/ha [1] [%] | pest or weed control at 250 g/ha [1] [%] | plant injury at 15.625 g/ha [2] [%] | plant injury at 62.5 g/ha [2] [%] | plant injury at 250 g/ha [2] [%] | pest or weed control at 15.625 g/ha [3] [%] | pest or weed control at 62.5 g/ha [3] [%] | pest or weed control at 250 g/ha [3] [%] | pest or weed control at 15.625 g/ha [4] [%] | pest or weed control at 62.5 g/ha [4] [%] | pest or weed control at 250 g/ha [4] [%] | pest or weed control at 15.625 g/ha [5] [%] | pest or weed control at 62.5 g/ha [5] [%] | pest or weed control at 250 g/ha [5] [%] | pest or weed control at 15.625 g/ha [6] [%] | pest or weed control at 62.5 g/ha [6] [%] | pest or weed control at 250 g/ha [6] [%] | pest or weed control at 15.625 g/ha [7] [%] | pest or weed control at 62.5 g/ha [7] [%] | further results
CN1C[C@@H](c2ccc(C(F)(F)F)cc2)[C@H](C(=O)Nc2cc(O)nc(C(F)(F)F)n2)C1=O (racemic) [Compound 1614] | 0 | 0 | 0 | 0 | 0 | 0 | 0 | 0 | 0 | 0 | 0 | 0 | 0 | 0 | 80 | 0 | 0 | 70 | 0 | 0 | pest or weed control at 250 g/ha [7]: 0%; plant injury at 15.625 g/ha [8]: 0%; plant injury at 62.5 g/ha [8]: 0%; plant injury at 250 g/ha [8]: 0%; pest or weed control at 15.625 g/ha [9]: 0%; pest or weed control at 62.5 g/ha [9]: 0%; pest or weed control at 250 g/ha [9]: 0%; pest or weed control at 15.625 g/ha [10]: 0%; pest or weed control at 62.5 g/ha [10]: 0%; pest or weed control at 250 g/ha [10]: 0%; pest or weed control at 15.625 g/ha [11]: 0%; pest or weed control at 62.5 g/ha [11]: 0%; pest or weed control at 250 g/ha [11]: 80%; pest or weed control at 15.625 g/ha [12]: 0%; pest or weed control at 62.5 g/ha [12]: 0%; pest or weed control at 250 g/ha [12]: 20%
CN1C[C@@H](c2cncc(Cl)c2)[C@H](C(=O)Nc2cccc(F)c2F)C1=O (racemic) [Compound 1461] | 0 | 60 | 90 | 0 | 0 | 0 | 30 | 80 | 90 | 0 | 0 | 0 | 0 | 0 | 0 | 0 | 0 | 0 | 0 | 30 | pest or weed control at 250 g/ha [7]: 50%; plant injury at 15.625 g/ha [8]: 10%; plant injury at 62.5 g/ha [8]: 0%; plant injury at 250 g/ha [8]: 0%; pest or weed control at 15.625 g/ha [9]: 20%; pest or weed control at 62.5 g/ha [9]: 70%; pest or weed control at 250 g/ha [9]: 70%; pest or weed control at 15.625 g/ha [10]: 0%; pest or weed control at 62.5 g/ha [10]: 0%; pest or weed control at 250 g/ha [10]: 0%; pest or weed control at 15.625 g/ha [11]: 0%; pest or weed control at 62.5 g/ha [11]: 0%; pest or weed control at 250 g/ha [11]: 0%; pest or weed control at 15.625 g/ha [12]: 0%; pest or weed control at 62.5 g/ha [12]: 0%; pest or weed control at 250 g/ha [12]: 0%
Cc1c(Cl)cccc1NC(=O)[C@@H]1C(=O)N(C)C[C@H]1c1ccc(C(F)(F)F)cc1 (racemic) [Compound 1607] | 0 | 40 | 80 | 0 | 0 | 10 | 50 | 80 | 80 | 0 | 10 | 20 | 0 | 20 | 30 | 0 | 0 | 20 | 0 | 50 | pest or weed control at 250 g/ha [7]: 60%; plant injury at 15.625 g/ha [8]: 0%; plant injury at 62.5 g/ha [8]: 0%; plant injury at 250 g/ha [8]: 60%; pest or weed control at 15.625 g/ha [9]: 50%; pest or weed control at 62.5 g/ha [9]: 80%; pest or weed control at 250 g/ha [9]: 80%; pest or weed control at 15.625 g/ha [10]: 20%; pest or weed control at 62.5 g/ha [10]: 30%; pest or weed control at 250 g/ha [10]: 60%; pest or weed control at 15.625 g/ha [11]: 0%; pest or weed control at 62.5 g/ha [11]: 40%; pest or weed control at 250 g/ha [11]: 70%; pest or weed control at 15.625 g/ha [12]: 10%; pest or weed control at 62.5 g/ha [12]: 30%; pest or weed control at 250 g/ha [12]: 40%
